Data taken from patent US9938273B2 (Plexxikon Inc., priority 2015, dated 2018).

Key:
[1] = test system: MOLM-14 F691L cells, FLT3 ITD and FLT3 F691L; assay: Cell proliferation assay (CellTiter-Glo), MOLM-14 F691L; format: cell-based; conditions: Homo sapiens, 72 h, 3d-Growth, GMean
Source text: The FLT3 inhibitors may be assessed using the MOLM-14, Acute Myeloid Leukemia cell line that endogenously expresses FLT3 ITD or derivatives of the human FLT3 AML cell line which acquired the D835Y (activation loop) of F691L (gatekeeper) mutation after selection in escalating doses of the FLT3 Inhibitor AC220. FLT3 inhibitors may also be assessed using cells that are engineered to express mutant FLT3. For engineered cells, murine Ba/F3 cells were transfected with full-length FLT3 ITD/D835Y mutations. The parental BA/F3 cells are dependent upon Interleukin-3 (IL-3) for survival, and introduction of the FLT3 constructs rendered these cells dependent upon FLT3 kinase activity when cultured in the absences of IL-3. Engineered BA/F3 cell growth assays can be performed in either the […] of IL-3, to assess the compound inhibition of FLT3 or to detect the presence of off-target activity, respectively. Inhibitors of FLT3 kinase activity reduce or eliminate the FLT3 oncogenic signaling, resulting in reduced cell proliferation. This inhibition is measured as a function of compound concentration to asses IC50 values.
Cell lines used in proliferation assays are as follows in Table 3:
Cells were seeded at 1×10^4 cells per well of a 96 well cell culture plate in 50 μl of cell culture medium. Compounds were dissolved in DMSO, typically at a concentration of 0.5 mM and were serially diluted 1:3 for a total of eight points and added to the cells to final concentrations of […], 0.0041, 0.0014 and 0.00046 μM in 100 μl cell culture medium (final concentration 0.2% DMSO). […] The cells were incubated at 37° C., 5% CO2 for three days. CellTiter-Glo Buffer (Promega Cell Viability Assay catalog #G7573) and substrate were equilibrated to room temperature, and enzyme/substrate Recombinant Firefly Luciferase/Beetle Luciferin was reconstituted. The cell plates were equilibrated to room temperature for 30 minutes, then lysed by addition of an equivalent volume of the Celltiter-Glo Reagent. The plate was mixed for 10 minutes on a plate shaker to lyse the cells. The plates were read on a Tecan M1000 using Luminescence protocol modified to read 0.1 s per well. The luminescence reading assesses the ATP content, which correlates directly with cell number such that the reading as a function of compound concentration was used to determine the IC50 value.

FLT3-D835Y = molecular target: T1, FLT3-D835Y (Homo sapiens, UniProt P36888, D835Y); assay: AlphaScreen kinase assay with recombinant enzyme, FLT3-D835Y; format: biochemical; conditions: 8pt, GMean
T1 construct: purchased Invitrogen PV3967
T1 sequence (P36888 27-993 D835Y): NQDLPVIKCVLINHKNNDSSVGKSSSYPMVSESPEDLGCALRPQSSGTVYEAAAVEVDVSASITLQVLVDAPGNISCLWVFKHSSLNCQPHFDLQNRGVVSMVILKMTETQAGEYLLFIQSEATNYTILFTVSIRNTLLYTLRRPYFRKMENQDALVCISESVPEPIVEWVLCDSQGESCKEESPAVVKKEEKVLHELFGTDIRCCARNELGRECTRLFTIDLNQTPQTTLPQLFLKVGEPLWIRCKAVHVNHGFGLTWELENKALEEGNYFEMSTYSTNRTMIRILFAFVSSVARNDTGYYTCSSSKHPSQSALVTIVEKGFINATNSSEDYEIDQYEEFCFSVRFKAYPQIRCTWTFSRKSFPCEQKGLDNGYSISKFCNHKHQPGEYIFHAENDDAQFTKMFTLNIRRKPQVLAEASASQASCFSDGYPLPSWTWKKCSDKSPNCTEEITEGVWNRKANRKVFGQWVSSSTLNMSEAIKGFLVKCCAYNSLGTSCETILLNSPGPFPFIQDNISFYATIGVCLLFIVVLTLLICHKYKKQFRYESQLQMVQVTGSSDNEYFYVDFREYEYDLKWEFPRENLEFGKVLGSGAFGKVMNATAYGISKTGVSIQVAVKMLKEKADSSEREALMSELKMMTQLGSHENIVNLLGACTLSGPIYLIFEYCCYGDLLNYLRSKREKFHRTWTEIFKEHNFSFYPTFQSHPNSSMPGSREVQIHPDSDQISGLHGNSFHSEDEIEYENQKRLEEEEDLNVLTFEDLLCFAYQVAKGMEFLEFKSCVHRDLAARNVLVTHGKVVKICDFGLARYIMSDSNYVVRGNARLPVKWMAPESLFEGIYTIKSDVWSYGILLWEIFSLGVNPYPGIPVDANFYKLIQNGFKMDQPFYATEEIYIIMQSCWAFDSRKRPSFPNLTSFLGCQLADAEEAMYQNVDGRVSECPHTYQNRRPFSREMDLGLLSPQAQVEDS
Outline: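 Inhibition was measured as a drop in AlphaScreen signal arising from phosphotyrosine-bead capture of a biotinylated poly(Glu4-Tyr) peptide (30 nM) phosphorylated by recombinant kinase. For IC50 work the stated final concentration was 10 μM for the FLT3 mutants and 100 μM for c-KIT.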

IC50 [1] | IC50 (FLT3-D835Y) | SMILES
0.0001 to 10 µM | 0.0001 to 10 µM | CC(C)(C#N)CNC(=O)c1cccc(-c2cnc3[nH]c(-c4ccccc4)c(Cl)c3c2)n1 [Compound P-0138, 6-(3-chloro-2-phenyl-1H-pyrrolo[2,3-b]pyridin-5-yl)-N-(2-cyano-2-methyl-propyl)pyridine-2-carboxamide]
0.0001 to 10 µM | 0.0001 to 10 µM | CC(C)(C#N)CNC(=O)c1cccc(-c2cnc3[nH]c(C4=CCN(C(=O)C5CC5)C4)cc3c2)n1 [Compound P-0141, N-(2-cyano-2-methyl-propyl)-6-[2-[1-(cyclopropanecarbonyl)-2,5-dihydropyrrol-3-yl]-1H-pyrrolo[2,3-b]pyridin-5-yl]pyridine-2-carboxamide]
0.0001 to 10 µM | 0.0001 to 10 µM | CC(C)(C#N)CNC(=O)c1cccc(-c2cnc3[nH]c(-c4ccc(F)cc4)cc3c2)n1 [Compound P-0144, N-(2-cyano-2-methyl-propyl)-6-[2-(4-fluorophenyl)-1H-pyrrolo[2,3-b]pyridin-5-yl]pyridine-2-carboxamide]
0.0001 to 10 µM | 0.0001 to 10 µM | CC(C)(O)CNC(=O)c1cccc(-c2cnc3[nH]c(-c4ccccc4)cc3c2)n1 [Compound P-0150, N-(2-hydroxy-2-methyl-propyl)-6-(2-phenyl-1H-pyrrolo[2,3-b]pyridin-5-yl)pyridine-2-carboxamide]
0.0001 to 10 µM | 0.0001 to 10 µM | CC(C)(C#N)CNC(=O)c1cccc(-c2cnc3[nH]c(-c4cnn(C(F)F)c4)cc3c2)n1 [Compound P-0153, N-(2-cyano-2-methyl-propyl)-6-[2-[1-(difluoromethyl)pyrazol-4-yl]-1H-pyrrolo[2,3-b]pyridin-5-yl]pyridine-2-carboxamide]
0.0001 to 10 µM | 0.0001 to 10 µM | CC(C)(C#N)CNC(=O)c1cccc(-c2cnc3[nH]c(C4=CCC(F)(F)CC4)cc3c2)n1 [Compound P-0157, N-(2-cyano-2-methyl-propyl)-6-[2-(4,4-difluorocyclohexen-1-yl)-1H-pyrrolo[2,3-b]pyridin-5-yl]pyridine-2-carboxamide]
0.0001 to 10 µM | 0.0001 to 10 µM | CC(C)(C#N)CNC(=O)c1cccc(-c2cnc3[nH]c(C4=CCS(=O)(=O)CC4)cc3c2)n1 [Compound P-0160, N-(2-cyano-2-methyl-propyl)-6-[2-(1,1-dioxo-3,6-dihydro-2H-thiopyran-4-yl)-1H-pyrrolo[2,3-b]pyridin-5-yl]pyridine-2-carboxamide]
0.0001 to 10 µM | 0.0001 to 10 µM | CC(C)(C#N)CNC(=O)c1cccc(-c2cnc3[nH]c(C4=CC[S+]([O-])CC4)cc3c2)n1 (stereo not shown) [Compound P-0161, N-(2-cyano-2-methyl-propyl)-6-[2-(1-oxo-3,6-dihydro-2H-thiopyran-4-yl)-1H-pyrrolo[2,3-b]pyridin-5-yl]pyridine-2-carboxamide]
0.0001 to 10 µM | 0.0001 to 10 µM | CC(C)(C#N)CNC(=O)c1cccc(-c2cnc3[nH]c(C4=CCN(C(=O)C5CC5)CC4)cc3c2)n1 [Compound P-0162, N-(2-cyano-2-methyl-propyl)-6-[2-[1-(cyclopropanecarbonyl)-3,6-dihydro-2H-pyridin-4-yl]-1H-pyrrolo[2,3-b]pyridin-5-yl]pyridine-2-carboxamide]
0.0001 to 10 µM | 0.0001 to 10 µM | CC(C)(C#N)NC(=O)c1cccc(-c2cnc3[nH]c(-c4cnn(C5CC5)c4)cc3c2)n1 [Compound P-0165, N-(1-cyano-1-methyl-ethyl)-6-[2-(1-cyclopropylpyrazol-4-yl)-1H-pyrrolo[2,3-b]pyridin-5-yl]pyridine-2-carboxamide]

More lines, now with the values behind:

SMILES | IC50 [1] | IC50 (FLT3-D835Y)
N#CC1CCN(C(=O)c2cccc(-c3cnc4[nH]c(-c5cnn(C(F)F)c5)cc4c3)n2)C1 (stereo not shown) [Compound P-0134, 1-[6-[2-[1-(difluoromethyl)pyrazol-4-yl]-1H-pyrrolo[2,3-b]pyridin-5-yl]pyridine-2-carbonyl]pyrrolidine-3-carbonitrile] | 0.0001 to 10 µM | 0.0001 to 10 µM
N#CC1CCN(C(=O)c2cccc(-c3cnc4[nH]c(C5=CCN(C(=O)C6CC6)C5)cc4c3)n2)C1 (stereo not shown) [Compound P-0136, 1-[6-[2-[1-(cyclopropanecarbonyl)-2,5-dihydropyrrol-3-yl]-1H-pyrrolo[2,3-b]pyridin-5-yl]pyridine-2-carbonyl]pyrrolidine-3-carbonitrile] | 0.0001 to 10 µM | 0.0001 to 10 µM
N#CC1(CNC(=O)c2cccc(-c3cnc4[nH]c(-c5ccccc5)cc4c3)n2)CC1 [Compound P-0137, N-[(1-cyanocyclopropyl)methyl]-6-(2-phenyl-1H-pyrrolo[2,3-b]pyridin-5-yl)pyridine-2-carboxamide] | 0.0001 to 10 µM | 0.0001 to 10 µM
CC(C)(C)NC(=O)c1cccc(-c2cnc3[nH]c(-c4ccccc4)cc3c2)n1 [Compound P-0140, N-tert-butyl-6-(2-phenyl-1H-pyrrolo[2,3-b]pyridin-5-yl)pyridine-2-carboxamide] | 0.0001 to 10 µM | 0.0001 to 10 µM
CC(C)(C#N)NC(=O)c1cccc(-c2cnc3[nH]c(-c4ccc(F)cc4)cc3c2)n1 [Compound P-0145, N-(1-cyano-1-methyl-ethyl)-6-[2-(4-fluorophenyl)-1H-pyrrolo[2,3-b]pyridin-5-yl]pyridine-2-carboxamide] | 0.0001 to 10 µM | 0.0001 to 10 µM
N#CC1(NC(=O)c2cccc(-c3cnc4[nH]c(-c5ccccc5)cc4c3)n2)CCCC1 [Compound P-0146, N-(1-cyanocyclopentyl)-6-(2-phenyl-1H-pyrrolo[2,3-b]pyridin-5-yl)pyridine-2-carboxamide] | 0.0001 to 10 µM | 0.0001 to 10 µM
N#CCCNC(=O)c1cccc(-c2cnc3[nH]c(-c4ccccc4)c(Br)c3c2)n1 [Compound P-0147, 6-(3-bromo-2-phenyl-1H-pyrrolo[2,3-b]pyridin-5-yl)-N-(2-cyanoethyl)pyridine-2-carboxamide] | 0.0001 to 10 µM | 0.0001 to 10 µM
O=C(NC1(C(F)(F)F)CC1)c1cccc(-c2cnc3[nH]c(-c4ccccc4)cc3c2)n1 [Compound P-0156, 6-(2-phenyl-1H-pyrrolo[2,3-b]pyridin-5-yl)-N-[1-(trifluoromethyl)cyclopropyl]pyridine-2-carboxamide] | 0.0001 to 10 µM | 0.0001 to 10 µM
CC(C)(C#N)NC(=O)c1cccc(-c2cnc3[nH]c(-c4cnn(C(F)F)c4)cc3c2)n1 [Compound P-0164, N-(2-cyanopropan-2-yl)-6-(2-(1-(difluoromethyl)-1H-pyrazol-4-yl)-1H-pyrrolo[2,3-b]pyridin-5-yl)picolinamide] | 0.0001 to 10 µM | 0.0001 to 10 µM
CC(C)(C#N)NC(=O)c1cccc(-c2cnc3[nH]c(-c4cnc(C5CC5)nc4)cc3c2)n1 [Compound P-0166, N-(1-cyano-1-methyl-ethyl)-6-[2-(2-cyclopropylpyrimidin-5-yl)-1H-pyrrolo[2,3-b]pyridin-5-yl]pyridine-2-carboxamide] | 0.0001 to 10 µM | 0.0001 to 10 µM
